In one assay the test system is Toxoplasma gondii. Nature of the assay: MMV: A total of 100ul of inoculum was added to each well (parasite/cell ratio, ~10:1; final volume, 200 ul). Six hours after inoculation, nonadherent parasites were removed, and 100 ul of complete DMEM (1% penicillin-streptomycin, 3% FBS) supplemented with inhibitors at different concentrations (2-fold serial dilutions starting from 30 uM) was added to all except the negative-control wells. Positive controls, consisting of pyrimethamine (PYR) and sulfadiazine (SDZ) (20-mg/ml stocks in DMSO), were tested at a 2mg/ml final concentration. Each test was performed in triplicate. In kind it is functional, organism-based. Conditions: 6 h.

A further assay deals with Entamoeba histolytica. Nature of the assay: MMV: Primary screening was performed with each compound at a 30 uM final concentration and in triplicate in sealed 96-well polystyrene microtiter plates. Parasite inocula (100 ul) comprising 20000 parasites/ml were added to each well and grown at 37 degrees C in a humidified atmosphere of 5% CO2 for 72 h. Positive controls consisted of metronidazole at 1 mg/ml. The growth of E. histolytica trophozoites in each well was determined microscopically by measuring the diameters of the confluent cells in drug-containing wells relative to those in the nega- tive-control wells. Type of assay: functional, organism-based.

Data on 72 compounds can be found in ChEMBL document CHEMBL3301448, “MMV Malaria Box screening against Toxoplasma gondii and Entamoeba histolytica”.

As to `COc1ccc2c(c1)C1(Nc3ccccc3-c3nc4ccccc4n31)C(=O)N2` (centres undefined), the IC50 in the assay on Toxoplasma gondii and in the assay on Entamoeba histolytica was over 30 µM throughout.

Consider `COc1cccc(Cn2c(Oc3ccccc3)nc3c2c(=O)n(C)c(=O)n3C)c1`, for which the IC50 in the assay with Toxoplasma gondii and with Entamoeba histolytica was over 30 µM each time.

For `CCOc1cc(CNC(C)C(O)c2ccccc2)cc(Cl)c1OCC` (centres undefined), the IC50 in the assay on Toxoplasma gondii and with Entamoeba histolytica was over 30 µM in each case.

Regarding `CCOc1c(Cl)cc(CNCC(O)c2ccccc2)cc1OC` (centres undefined), the IC50 in the assay with Toxoplasma gondii and with Entamoeba histolytica was over 30 µM throughout.

Take `OC(CNCC1CCCO1)Cn1c2ccc(Cl)cc2c2cc(Cl)ccc21` (centres undefined): the IC50 with Toxoplasma gondii and in the assay with Entamoeba histolytica was over 30 µM throughout.

Regarding `COc1ccc2nc(C)cc(Nc3ccccc3O)c2c1`, the IC50 in the assay on Toxoplasma gondii and in the assay on Entamoeba histolytica was over 30 µM in each case.

In the case of `CCn1nc(-c2ccc(C(=O)OC)cc2)nc2c(=O)n(C)c(=O)nc1-2`, the IC50 in the assay with Toxoplasma gondii and in the assay with Entamoeba histolytica was over 30 µM each time.

On to `CCOc1ccccc1CN1CCc2nc3cc(C(C)(C)C)nn3c(O)c2C1`, for which the IC50 with Toxoplasma gondii and with Entamoeba histolytica was over 30 µM each time.

For the compound `Cc1cc(N2CCCC2)nc(Nc2ccc(NC(=O)CCc3ccccc3)cc2)n1`, the IC50 with Toxoplasma gondii and in the assay with Entamoeba histolytica was over 30 µM each time.

Regarding `Cc1cc(NC(=O)c2cccc(C(F)(F)F)c2)n(-c2nc(-c3ccc4c(c3)OCO4)cs2)n1`, the IC50 in the assay with Toxoplasma gondii and in the assay on Entamoeba histolytica was over 30 µM each time.

Take `CN1CCN(c2ncnc3c2[nH]c2ccc(Cl)cc23)CC1`: the IC50 with Toxoplasma gondii and in the assay with Entamoeba histolytica was over 30 µM each time.

On to `CC1(c2ccccc2)Nc2ccccc2-c2nc3ccccc3n21` (centres undefined), for which the IC50 with Toxoplasma gondii and with Entamoeba histolytica was over 30 µM each time.

Take `COc1cccc(C2(C)Nc3ccccc3-c3nc4ccccc4n32)c1` (centres undefined): the IC50 in the assay on Toxoplasma gondii and in the assay with Entamoeba histolytica was over 30 µM throughout.

As to `CC(C)CNC(=O)c1c(N)n(CCc2ccccc2F)c2nc3ccccc3nc12`, the IC50 is 26.8 µM with Toxoplasma gondii and over 30 µM in the assay with Entamoeba histolytica.

On to `CC(C)(C)CC(C)(C)NCC(O)COc1ccc(Cl)cc1Cl` (centres undefined), for which the half-inhibitory concentration (IC50) with Toxoplasma gondii and with Entamoeba histolytica was over 30 µM throughout.

As for `O=C(Nc1ccc(Br)cc1)Nc1cccc(Cl)c1`, the IC50 with Toxoplasma gondii and in the assay on Entamoeba histolytica was over 30 µM in each case.

`CN(C)CCNc1cc(-c2ccccc2)nc2ccccc12`: the IC50 in the assay with Toxoplasma gondii was 3.05 µM; in the assay with Entamoeba histolytica, over 30 µM.

As to `COCCNCC(O)Cn1c2ccc(Cl)cc2c2cc(Cl)ccc21` (centres undefined), the IC50 in the assay on Toxoplasma gondii and with Entamoeba histolytica was over 30 µM throughout.

Take `COc1ccc2nc(C)cc(Nc3ccc(Cl)cc3)c2c1`: the IC50 in the assay on Toxoplasma gondii and with Entamoeba histolytica was over 30 µM throughout.

`O=C(NC1CCN(Cc2ccccc2)CC1)c1cc(-c2ccncc2)nc2ccc(Cl)cc12`: the IC50 in the assay with Toxoplasma gondii and in the assay on Entamoeba histolytica was over 30 µM each time.

For the compound `CCC(O)c1ccc(Br)cc1NC(=O)c1cccc(Cl)c1` (centres undefined), the IC50 in the assay on Toxoplasma gondii and with Entamoeba histolytica was over 30 µM throughout.

`COc1ccc2nc(C)cc(Nc3cccc(O)c3)c2c1`: the IC50 with Toxoplasma gondii and in the assay with Entamoeba histolytica was over 30 µM in each case.

In the case of `COc1cc2cc(C(=O)Nc3ccccc3)c(N)nc2cc1OC`, the IC50 in the assay with Toxoplasma gondii and in the assay with Entamoeba histolytica was over 30 µM throughout.

Turning to `CN(C)CCCNCc1ccc(-c2ccc(F)c(Cl)c2)o1`, the IC50 in the assay with Toxoplasma gondii and in the assay on Entamoeba histolytica was over 30 µM in each case.

For the compound `O=c1nc(C=Cc2ccc(Br)cc2)oc2ccccc12`, the IC50 in the assay on Toxoplasma gondii and with Entamoeba histolytica was over 30 µM each time.

Consider `Cc1sc2ncnc(Sc3nc4ccccc4[nH]3)c2c1C`, for which the IC50 with Toxoplasma gondii is 13.9 µM; in the assay on Entamoeba histolytica, over 30 µM.

Consider `CCC(=O)Nc1nnc(Cc2ccc(OC)c(OC)c2)s1`, for which the IC50 with Toxoplasma gondii and in the assay on Entamoeba histolytica was over 30 µM each time.

As to `Oc1ccccc1CN1CCN(C(c2ccccc2)c2ccccc2)CC1`, the IC50 with Toxoplasma gondii and in the assay on Entamoeba histolytica was over 30 µM throughout.

As for `CC(=O)Nc1nnc(SCc2c(C)cc(C(C)(C)C)cc2C)s1`, the IC50 with Toxoplasma gondii and in the assay with Entamoeba histolytica was over 30 µM each time.

Turning to `O=C(Nc1ccc(CN2CCOCC2)cc1)c1ccc(-c2cc(Cl)ccc2Cl)o1`, the IC50 in the assay with Toxoplasma gondii and with Entamoeba histolytica was over 30 µM throughout.

As to `Cc1cc(Nc2cccc(F)c2)nc(NCc2ccccc2)n1`, the IC50 in the assay on Toxoplasma gondii and in the assay with Entamoeba histolytica was over 30 µM in each case.

As for `CCOc1ccc(C2N(C)c3ccccc3N2C)cc1`, the IC50 in the assay with Toxoplasma gondii and in the assay with Entamoeba histolytica was over 30 µM throughout.

Regarding `COc1cccc(C(=O)Nc2ccc(-c3nc4ccccc4[nH]3)cc2)c1`, the IC50 in the assay on Toxoplasma gondii and in the assay on Entamoeba histolytica was over 30 µM in each case.

Consider `COCCn1c(C)nc2ccccc2c1=O`, for which the IC50 with Toxoplasma gondii and in the assay on Entamoeba histolytica was over 30 µM each time.

Consider `O=C(Nc1cccc(-c2nc3ccccc3[nH]2)c1)c1cccc(NC(=O)c2ccco2)c1`, for which the IC50 in the assay with Toxoplasma gondii and with Entamoeba histolytica was over 30 µM in each case.

With `O=C(NC1CCN(Cc2ccccc2)CC1)c1cc(-c2cccnc2)nc2ccc(Cl)cc12`, the IC50 in the assay on Toxoplasma gondii and with Entamoeba histolytica was over 30 µM in each case.

As for `CCN(Cc1ccccc1)C1CCN(Cc2cc(Br)ccc2O)CC1`, the IC50 in the assay on Toxoplasma gondii and in the assay with Entamoeba histolytica was over 30 µM in each case.

As to `COc1nc(Nc2ccc(C(C)C)cc2)nc(OC)n1`, the IC50 in the assay with Toxoplasma gondii and in the assay with Entamoeba histolytica was over 30 µM each time.

Turning to `CCOc1cccc(C(=O)Nc2ccc(-c3nc4ccccc4[nH]3)cc2)c1`, the IC50 with Toxoplasma gondii and in the assay with Entamoeba histolytica was over 30 µM throughout.

As for `Clc1cc(Br)ccc1-c1ccc(CNCC2CCNCC2)o1`, the IC50 in the assay with Toxoplasma gondii and in the assay on Entamoeba histolytica was over 30 µM each time.

For the compound `CCOc1ccccc1NC(=O)CN1CCN(C(=O)c2ccco2)CC1`, the IC50 is 0.19 µM in the assay with Toxoplasma gondii and over 30 µM with Entamoeba histolytica.

Turning to `COc1ccc(-c2nonc2NC(=O)c2cccc(Cl)c2)cc1OC`, the IC50 in the assay on Toxoplasma gondii and in the assay with Entamoeba histolytica was over 30 µM each time.

With `Cc1cc(NC(=O)c2ccc(-c3ccccc3)cc2)no1`, the IC50 was 21.1 µM in the assay with Toxoplasma gondii and over 30 µM in the assay with Entamoeba histolytica.

On to `O=C(Nc1ccc(N2CCN(Cc3ccccc3)CC2)cc1)c1cccs1`, for which the IC50 with Toxoplasma gondii and with Entamoeba histolytica was over 30 µM each time.

In the case of `CCOc1cc2c(cc1OCC)C(c1cc(C)c(O)c(C)c1)NCC2` (centres undefined), the IC50 in the assay on Toxoplasma gondii is 12.8 µM; in the assay on Entamoeba histolytica it was over 30 µM.

On to `O=C1CC(O)(C(F)(F)C(F)(F)F)Oc2ccccc21` (centres undefined), for which the IC50 in the assay on Toxoplasma gondii and in the assay on Entamoeba histolytica was over 30 µM in each case.

Consider `COc1cc(SC)ccc1C(=O)N1CCCC(C)C1` (centres undefined), for which the IC50 in the assay with Toxoplasma gondii and in the assay with Entamoeba histolytica was over 30 µM throughout.

Regarding `CC(C)c1ccc(CNCC(O)c2ccccc2)cc1` (centres undefined), the IC50 in the assay with Toxoplasma gondii is 18.1 µM; in the assay with Entamoeba histolytica, over 30 µM.

As to `CC1CC(C)CN(C(=O)c2ccc(Cl)cc2Cl)C1` (centres undefined), the IC50 in the assay with Toxoplasma gondii and in the assay with Entamoeba histolytica was over 30 µM throughout.

As for `OC(CNC1CCCC1)Cn1c2ccccc2c2ccccc21` (centres undefined), the IC50 in the assay with Toxoplasma gondii and in the assay with Entamoeba histolytica was over 30 µM in each case.

Consider `Cc1ccc(NC(=O)Nc2cccc(Cl)c2)cc1F`, for which the IC50 in the assay on Toxoplasma gondii and with Entamoeba histolytica was over 30 µM in each case.

As to `Oc1ccc(Br)cc1CN1CCN(Cc2cccc(F)c2)CC1`, the IC50 with Toxoplasma gondii and with Entamoeba histolytica was over 30 µM each time.

As to `O=c1nc(C=Cc2ccc(Cl)cc2)oc2ccccc12`, the IC50 in the assay on Toxoplasma gondii and in the assay with Entamoeba histolytica was over 30 µM each time.

As for `O=C(NCc1ccco1)C1CCN(S(=O)(=O)c2ccc(Br)cc2)CC1`, the IC50 in the assay on Toxoplasma gondii and with Entamoeba histolytica was over 30 µM throughout.

In the case of `CN(C)c1ccc(N2C(N)=NC(N)=NC2(C)C)cc1`, the IC50 in the assay on Toxoplasma gondii was 28.9 µM; with Entamoeba histolytica, over 30 µM.

As for `Clc1ccc2[nH]c3c(NCCCN4CCOCC4)ncnc3c2c1`, the IC50 with Toxoplasma gondii and with Entamoeba histolytica was over 30 µM each time.

Take `COc1ccc(Nc2nc(NCc3ccccc3)c3ccccc3n2)cc1`: the IC50 with Toxoplasma gondii and in the assay on Entamoeba histolytica was over 30 µM throughout.

Regarding `COc1cc2c(cc1OC)C1=NNC(=O)C1=NC(C)(C)C2`, the IC50 in the assay on Toxoplasma gondii and in the assay with Entamoeba histolytica was over 30 µM throughout.

For the compound `Oc1c(CN2CCN(c3ccccc3F)CC2)cc(Br)c2cccnc12`, the IC50 with Toxoplasma gondii and with Entamoeba histolytica was over 30 µM in each case.

With `OC(CNCc1ccccc1)Cn1c2ccccc2c2ccccc21` (centres undefined), the concentration for half-maximal inhibition (IC50) with Toxoplasma gondii and in the assay on Entamoeba histolytica was over 30 µM in each case.

Turning to `Oc1c2c(nc3cc(-c4ccccc4)nn13)CCCC2`, the IC50 in the assay with Toxoplasma gondii is 26.2 µM; in the assay with Entamoeba histolytica, over 30 µM.

As for `CCCCc1c(C)nc2c(OC)cccc2c1O`, the IC50 with Toxoplasma gondii and in the assay on Entamoeba histolytica was over 30 µM each time.

On to `Clc1ccc2c(N3CCCC3)ccnc2c1`, for which the results for the IC50 in the assay with Toxoplasma gondii and in the assay with Entamoeba histolytica were 1.49 µM and over 30 µM, respectively.

`CCOC(=O)C1CCN(C(=O)CN2C(=O)c3ccccc3C2c2c[nH]c3ccccc23)CC1` (centres undefined): the IC50 in the assay with Toxoplasma gondii and in the assay on Entamoeba histolytica was over 30 µM in each case.

Regarding `CCOc1ccc(CCNC(=O)c2cccs2)cc1OCC`, the IC50 in the assay with Toxoplasma gondii and in the assay on Entamoeba histolytica was over 30 µM in each case.

For the compound `Cc1cc(N2CCN(C3CCCC3)CC2)n2c(nc3ccccc32)c1C#N`, the IC50 in the assay with Toxoplasma gondii and in the assay with Entamoeba histolytica was over 30 µM each time.

Turning to `O=c1c2c([nH]c3ccccc13)CCCC2`, the IC50 with Toxoplasma gondii and with Entamoeba histolytica was over 30 µM throughout.

As for `CCCCOc1ccc(C(=O)Nc2cc(C)on2)cc1`, the IC50 in the assay with Toxoplasma gondii and in the assay on Entamoeba histolytica was over 30 µM throughout.

`CCc1ccc(Nc2cc(C)nc3nc(C)nn23)cc1`: the IC50 with Toxoplasma gondii and in the assay with Entamoeba histolytica was over 30 µM in each case.

Consider `CCN(CC)S(=O)(=O)c1ccc(-c2csc(Nc3ccc(C)c(C)c3)n2)cc1`, for which the IC50 in the assay with Toxoplasma gondii and in the assay on Entamoeba histolytica was over 30 µM each time.

With `Cc1c(C)n(CC(O)CNC2CCCCC2C)c2ccccc12` (centres undefined), the IC50 in the assay with Toxoplasma gondii and in the assay on Entamoeba histolytica was over 30 µM each time.

Regarding `CCCCN(CCCC)S(=O)(=O)c1ccc(NC(=O)c2ccco2)cc1`, the IC50 was 1.07 µM in the assay on Toxoplasma gondii and over 30 µM with Entamoeba histolytica.
